# Results reported in ChEMBL document CHEMBL5365543, “Benzamidine Conjugation Converts Expelled Potential Active Agents into Antifungals against Drug-Resistant Fungi” (J Med Chem, 2023).
# Activity calls are given as the source filed them. No cut-off for these calls is given here.
# Assays:
# [1] = Drug accumulation in wild-type Candida albicans SC5314 at 50 microg/ml incubated for 3 hrs by HPLC analysis; format: ADME; settings: dose 50 µg/ml
# Candida albicans [2] = assay: Antifungal activity against wild-type Candida albicans SC5314 assessed as inhibition of fungal growth measured after 24 hrs by CLSI based microtiter plate analysis; format: functional
# Nakaseomyces glabratus = assay: Antifungal activity against clinical isolate fluconazole-resistant Candida glabrata CG2 assessed as inhibition of fungal growth measured after 24 hrs by CLSI based microtiter plate analysis; format: functional
# [Candida] auris [3] = Antifungal activity against clinical isolate fluconazole-resistant Candida auris CBS12776 assessed as inhibition of fungal growth measured after 24 hrs by CLSI based microtiter plate analysis; format: functional; settings: Candidozyma auris
# Candida albicans [4] = assay: Antifungal activity against clinical isolate Candida albicans YEM15 overexpressing efflux pump CdrL and Cdr2 assessed as inhibition of fungal growth measured after 24 hrs by CLSI based microtiter plate analysis; format: functional
# Candida albicans [5] = assay: Antifungal activity against clinical isolate fluconazole-resistant Candida albicans Gu5 harbouring TAC1 mutation overexpressing efflux pump CdrL and Cdr2 assessed as inhibition of fungal growth measured after 24 hrs by CLSI based microtiter plate analysis; format: functional
# Candida albicans [6] = assay: Antifungal activity against clinical isolate fluconazole-resistant Candida albicans G5 harbouring MRR1 mutation overexpressing MdrL assessed as inhibition of fungal growth measured after 24 hrs by CLSI based microtiter plate analysis; format: functional
# Candida albicans [7] = assay: Antifungal activity against clinical isolate Candida albicans SCMRRIR34MPG2A harbouring MRR1 mutation overexpressing efflux pump MdrL assessed as inhibition of fungal growth measured after 24 hrs by CLSI based microtiter plate analysis; format: functional
# Candida albicans [8] = assay: Antifungal activity against clinical isolate fluconazole-resistant Candida albicans DSY296 harbouring TAC1 mutation overexpressing efflux pump CdrL and Cdr2 assessed as inhibition of fungal growth measured after 24 hrs by CLSI based microtiter plate analysis; format: functional
# Candida albicans [9] = assay: Antifungal activity against clinical isolate Candida albicans SCUPC2R14MPG2A harbouring UPC2 mutation overexpressing […] Erg11 assessed as inhibition of fungal growth measured after 24 hrs by CLSI based microtiter plate analysis; format: functional
# [Candida] auris [10] = Antifungal activity against clinical isolate fluconazole-resistant Candida auris CBS12774 assessed as inhibition of fungal growth measured after 24 hrs by CLSI based microtiter plate analysis; format: functional; settings: Candidozyma auris
# Candida albicans [11] = assay: Antifungal activity against clinical isolate Candida albicans YEM13 overexpressing efflux pump MdrL assessed as inhibition of fungal growth measured after 24 hrs by CLSI based microtiter plate analysis; format: functional
# Candida albicans [12] = assay: Antifungal activity against clinical isolate fluconazole-resistant Candida albicans CA632 assessed as inhibition of fungal growth measured after 24 hrs by CLSI based microtiter plate analysis; format: functional
# Candida tropicalis = assay: Antifungal activity against clinical isolate fluconazole-resistant Candida tropicalis CT10 assessed as inhibition of fungal growth measured after 24 hrs by CLSI based microtiter plate analysis; format: functional
# Cryptococcus neoformans = assay: Antifungal activity against clinical isolate fluconazole-resistant Cryptococcus neoformans H99 assessed as inhibition of fungal growth measured after 24 hrs by CLSI based microtiter plate analysis; format: functional
# Candida albicans [13] = assay: microbe, parasite or virus in culture; format: functional; settings: DSY654, time 24 hrs
# [14] = Candida albicans, SC5314, read-out: MIC80
# [15] = Candida albicans, SC5314, 24 h, read-out: MIC80
compound,measurement,setting,value
C=C(C)[C@@H]1CC[C@]2(C(=O)OCCCOc3ccc(C(=N)N)cc3)CC[C@]3(C)[C@H](CC[C@@H]4[C@@]5(C)CC[C@H](O)C(C)(C)[C@@H]5CC[C@]43C)[C@@H]12,Drug uptake,[1],Active
same,MIC80,Candida albicans [2]; [14],64 µg/mL
C=CCc1ccc(O)c(-c2ccc(OCCCOc3ccc(C(=N)N)cc3)c(CC=C)c2)c1,Drug uptake,[1],Active
same,MIC80,Nakaseomyces glabratus,16 µg/mL
same,MIC80,[Candida] auris [3],16 µg/mL
same,MIC80,Candida albicans [4],8 µg/mL
same,MIC80,Candida albicans [5],8 µg/mL
same,MIC80,Candida albicans [6],8 µg/mL
same,MIC,Candida albicans [2],inactive
same,MIC80,Candida albicans [2]; [15],8 µg/mL
same,MIC80,Candida albicans [7],8 µg/mL
same,MIC80,Candida albicans [8],8 µg/mL
same,MIC80,Candida albicans [9],8 µg/mL
same,MIC80,[Candida] auris [10],8 µg/mL
same,MIC80,Candida albicans [11],8 µg/mL
same,MIC80,Candida albicans [12],8 µg/mL
same,MIC80,Candida tropicalis,16 µg/mL
same,MIC80,Cryptococcus neoformans,8 µg/mL
Fc1ccc(C(c2ccc(F)cc2)N2CCNCC2)cc1,Drug uptake,[1]; BLD = below limit of detection,Bld
same,MIC,"Candida albicans [2]; Candida albicans, SC5314",> 256 µg/mL
Cc1cc(N)c2ccccc2[n+]1CCCCCI.[I-],MIC80,Candida albicans [13],128 µg/mL
same,MIC80,Candida albicans [2]; [14],128 µg/mL
Clc1ccc2c(c1)CCc1cccnc1C2=C1CCNCC1 [DESLORATADINE],Drug uptake,[1]; BLD = below limit of detection,Bld
C=C1C(=O)[C@@]2(C)CC[C@@H]3[C@]1(CC[C@H]1[C@@]3(C)CCC[C@@]1(C)C(=O)O)C2,Drug uptake,[1]; BLD = below limit of detection,Bld
C=C1[C@H](O)[C@@]23CC[C@H]4[C@@](C)(CCC[C@@]4(C)C(=O)OCCCOc4ccc(C(=N)N)cc4)[C@@H]2CC[C@]1(O)C3,Drug uptake,[1],Active
same,MIC80,Candida albicans [2]; [14],64 µg/mL
C[C@@H]1CC[C@@]2(OC1)O[C@H]1C[C@H]3[C@@H]4CC=C5C[C@@H](O)CC[C@]5(C)[C@H]4CC[C@]3(C)[C@H]1[C@@H]2C [DISOGENIN],Drug uptake,[1]; BLD = below limit of detection,Bld
same,MIC,"Candida albicans [2]; Candida albicans, SC5314",> 256 µg/mL
O=C(O)c1ccccc1Nc1cccc(C(F)(F)F)c1 [FLUFENAMIC ACID],Drug uptake,[1]; BLD = below limit of detection,Bld
same,MIC,"Candida albicans [2]; Candida albicans, SC5314",> 256 µg/mL
CC/C(=C(/CC)c1ccc(O)cc1)c1ccc(O)cc1 [DIETHYLSTILBESTROL],MIC,Candida albicans [13],4 µg/mL
N=C(N)c1ccc(OCCCBr)cc1,MIC80,Candida albicans [13],> 256 µg/mL
same,MIC80,Candida albicans [2]; [14],> 256 µg/mL
C#C[C@]1(O)CC[C@H]2[C@@H]3CCC4=CCCC[C@@H]4[C@H]3C(=C)C[C@@]21CC [DESOGESTREL],Drug uptake,[1]; BLD = below limit of detection,Bld
same,MIC,Candida albicans [13],4 µg/mL
CCc1n(CCCI)c2ccccc2[n+]1C.[I-],MIC80,Candida albicans [13],> 256 µg/mL
same,MIC80,Candida albicans [2]; [14],> 256 µg/mL
Fc1ccc(C(c2ccc(F)cc2)N2CCN(C/C=C/c3ccccc3)CC2)cc1 [FLUNARIZINE],MIC,Candida albicans [13],8 µg/mL
same,MIC,Candida albicans [2],inactive
CC(=O)O[C@H]1C[C@@]2(C)[C@@H](C[C@@H](O)[C@H]3[C@@]4(C)CC[C@@H](O)[C@@H](C)[C@@H]4CC[C@@]32C)/C1=C(\CCC=C(C)C)C(=O)OCCCOc1ccc(C(=N)N)cc1,Drug uptake,[1],Active
same,MIC80,Candida albicans [2]; [14],16 µg/mL
Cc1ccc(Sc2ccccc2N2CCNCC2)c(C)c1 [VORTIOXETINE],Drug uptake,[1]; BLD = below limit of detection,Bld
same,MIC,Candida albicans [13],4 µg/mL
CC(=O)O[C@H]1C[C@@]2(C)[C@@H](C[C@@H](O)[C@H]3[C@@]4(C)CC[C@@H](O)[C@@H](C)[C@@H]4CC[C@@]32C)/C1=C(\CCC=C(C)C)C(=O)O [FUSIDIC ACID],Drug uptake,[1]; BLD = below limit of detection,Bld
same,MIC,"Candida albicans [2]; Candida albicans, SC5314",> 256 µg/mL
C=C(C)[C@@H]1CC[C@]2(C(=O)O)CC[C@]3(C)[C@H](CC[C@@H]4[C@@]5(C)CC[C@H](O)C(C)(C)[C@@H]5CC[C@]43C)[C@@H]12 [BETULINIC ACID],Drug uptake,[1]; BLD = below limit of detection,Bld
same,MIC,"Candida albicans [2]; Candida albicans, SC5314",> 256 µg/mL
CC1(C)CC[C@]2(C(=O)OCCCOc3ccc(C(=N)N)cc3)CC[C@]3(C)C(=CC[C@@H]4[C@@]5(C)CC[C@H](O)C(C)(C)[C@@H]5CC[C@]43C)[C@@H]2C1,Drug uptake,[1],Active
same,MIC80,Candida albicans [2]; [14],4 µg/mL
C=C1[C@H](O)[C@@]23CC[C@H]4[C@@](C)(CCC[C@@]4(C)C(=O)O)[C@@H]2CC[C@]1(O)C3,Drug uptake,[1]; BLD = below limit of detection,Bld
same,MIC,"Candida albicans [2]; Candida albicans, SC5314",> 256 µg/mL
C[C@@]12CC[C@@H]3[C@@](CC[C@H]4[C@@]3(C)CCC[C@@]4(C)C(=O)O)(CC1=O)C2 [ISOSTEVIOL],Drug uptake,[1]; BLD = below limit of detection,Bld
CC1(C)[C@@H]2CC[C@@]1(C)[C@@H](OC(=O)CCCOc1ccc(C(=N)N)cc1)C2,Drug uptake,[1],Active
same,MIC80,Candida albicans [2]; [14],8 µg/mL
C=C1C(=O)[C@@]2(C)CC[C@@H]3[C@@]1(CC[C@H]1[C@@]3(C)CCC[C@@]1(C)C(=O)OCCCCCCCCCOc1ccc(C(=N)N)cc1)C2,Drug uptake,[1]; BLD = below limit of detection,Bld
same,MIC,"Candida albicans [2]; Candida albicans, SC5314",32 µg/mL
C[C@@H]1[C@H](O)[C@@H](C)/C=C/C=C/C=C/C=C/C=C/C=C/C=C/[C@H](O[C@@H]2O[C@H](C)[C@@H](O)[C@H](N)[C@@H]2O)C[C@@H]2O[C@](O)(C[C@@H](O)C[C@@H](O)[C@H](O)CC[C@@H](O)C[C@@H](O)CC(=O)O[C@H]1C)C[C@H](O)[C@H]2C(=O)O [AMPHOTERICIN B],MIC80,Nakaseomyces glabratus,0.5 µg/mL
same,MIC80,[Candida] auris [3],1 µg/mL
same,MIC80,Candida albicans [4],2 µg/mL
same,MIC80,Candida albicans [5],1 µg/mL
same,MIC80,Candida albicans [6],0.5 µg/mL
same,MIC80,Candida albicans [2]; [15],0.5 µg/mL
same,MIC80,Candida albicans [8],0.5 µg/mL
same,MIC80,Candida albicans [9],0.5 µg/mL
same,MIC80,[Candida] auris [10],1 µg/mL
same,MIC80,Candida albicans [11],0.5 µg/mL
same,MIC80,Candida albicans [12],0.5 µg/mL
same,MIC80,Candida tropicalis,2 µg/mL
same,MIC80,Cryptococcus neoformans,1 µg/mL
C[C@@H]1CC[C@@]2(OC1)O[C@H]1C[C@H]3[C@@H]4CC=C5C[C@@H](OC(=O)CCCOc6ccc(C(=N)N)cc6)CC[C@]5(C)[C@H]4CC[C@]3(C)[C@H]1[C@@H]2C,Drug uptake,[1],Active
same,MIC80,Candida albicans [2]; [14],64 µg/mL
C=C1C(=O)O[C@@]23CC[C@H]4[C@@](C)(CCC[C@@]4(C)C(=O)OCCCOc4ccc(C(=N)N)cc4)[C@@H]2CC[C@]1(O)C3,Drug uptake,[1],Active
same,MIC80,Candida albicans [2]; [14],32 µg/mL
C=C1C(=O)O[C@@]23CC[C@H]4[C@@](C)(CCC[C@@]4(C)C(=O)O)[C@@H]2CC[C@]1(O)C3,Drug uptake,[1]; BLD = below limit of detection,Bld
same,MIC,"Candida albicans [2]; Candida albicans, SC5314",> 256 µg/mL
BrCCC[P+](c1ccccc1)(c1ccccc1)c1ccccc1.[Br-],MIC80,Candida albicans [13],> 256 µg/mL
same,MIC80,Candida albicans [2]; [14],> 256 µg/mL
CC1(C)C2CCC1(C)C(O)C2 (stereo not given) [BORNEOL],Drug uptake,[1]; BLD = below limit of detection,Bld
same,MIC,"Candida albicans [2]; Candida albicans, SC5314",> 256 µg/mL
CCOC(=O)C1=C(COCCN)NC(C)=C(C(=O)OC)C1c1ccccc1Cl (stereo not given) [AMLODIPINE],Drug uptake,[1]; BLD = below limit of detection,Bld
same,MIC,Candida albicans [13],32 µg/mL
C=C1C(=O)[C@@]23CC[C@H]4[C@@](C)(CCC[C@@]4(C)C(=O)O)[C@@H]2CC[C@]1(O)C3,Drug uptake,[1]; BLD = below limit of detection,Bld
same,MIC,Candida albicans [13],256 µg/mL
same,MIC,Candida albicans [2],inactive
O=C(OCCOCCO)c1ccccc1Nc1cccc(C(F)(F)F)c1 [ETOFENAMATE],MIC,Candida albicans [13],16 µg/mL
same,MIC,Candida albicans [2],inactive
C=CCc1ccc(O)c(-c2ccc(O)c(CC=C)c2)c1 [HONOKIOL],Drug uptake,[1]; BLD = below limit of detection,Bld
same,MIC,Candida albicans [13],4 µg/mL
CC1(C)CC[C@]2(C(=O)O)CC[C@]3(C)C(=CC[C@@H]4[C@@]5(C)CC[C@H](O)C(C)(C)[C@@H]5CC[C@]43C)[C@@H]2C1 [OLEANOLIC_ACID],Drug uptake,[1]; BLD = below limit of detection,Bld
same,MIC,"Candida albicans [2]; Candida albicans, SC5314",> 256 µg/mL
N=C(N)c1ccc(OCCCN2CCN(C(c3ccc(F)cc3)c3ccc(F)cc3)CC2)cc1,Drug uptake,[1],Active
same,MIC80,Candida albicans [2]; [14],32 µg/mL
COc1ccc2c(CCCI)c3[n+](cc2c1OC)CCc1cc2c(cc1-3)OCO2.[I-],MIC80,Candida albicans [13],16 µg/mL
same,MIC80,Candida albicans [2]; [14],64 µg/mL
C[C@H]1[C@H](C)CC[C@]2(C(=O)O)CC[C@]3(C)C(=CC[C@@H]4[C@@]5(C)CC[C@H](O)C(C)(C)[C@@H]5CC[C@]43C)[C@H]12 [URSOLIC ACID],Drug uptake,[1]; BLD = below limit of detection,Bld
